Assay results as given in US20240228488A1 (TAKEDA PHARMACEUTICAL COMPANY LIMITED, priority 2021, published 2024).
pEC50: −log10 of the molar value.

Tests used:
plasma kallikrein = target: T1, plasma kallikrein (Homo sapiens, UniProt P03952); experiment: Neat human plasma assay, FXIIa contact pathway-activated, PFR-AMC substrate; assay type: biochemical; conditions: citrated human plasma 78% final, 10 nM human FXIIa, 100 μM PFR-AMC; read-out: Human Plasma Assay: IC90
T1 construct: from tissue
Outline: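 Citrated human plasma (78% final) with compound, contact-activated by 10 nM human FXIIa in pKal buffer pH 7.5, with 100 μM PFR-AMC. Fluorescence (360/480 nm) followed 5 min at room temperature; rates versus concentration fitted by 4-parameter equation for IC50/IC90.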

[1] = target: human activated kallikrein enzyme (Homo sapiens, UniProt P03952); experiment: Plasma kallikrein inhibition, fluorogenic PFR-AMC substrate, 500 pM activated kallikrein format; assay type: biochemical; conditions: 500 pM activated kallikrein, 300 uM PFR-AMC, 30 min preincubation, 10 min reaction; read-out: Primary Dose Response Assay: Average EC50
Sequence of human activated kallikrein enzyme (P03952 391-638 limits assumed): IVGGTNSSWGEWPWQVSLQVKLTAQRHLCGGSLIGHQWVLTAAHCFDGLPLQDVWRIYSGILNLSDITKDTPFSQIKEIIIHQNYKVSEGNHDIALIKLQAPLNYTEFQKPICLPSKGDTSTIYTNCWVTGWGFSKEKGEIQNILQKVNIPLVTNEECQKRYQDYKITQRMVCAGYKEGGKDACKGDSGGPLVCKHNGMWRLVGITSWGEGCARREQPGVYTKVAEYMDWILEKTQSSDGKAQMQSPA
Sequence of human activated kallikrein enzyme (P03952 20-390 partner limits assumed): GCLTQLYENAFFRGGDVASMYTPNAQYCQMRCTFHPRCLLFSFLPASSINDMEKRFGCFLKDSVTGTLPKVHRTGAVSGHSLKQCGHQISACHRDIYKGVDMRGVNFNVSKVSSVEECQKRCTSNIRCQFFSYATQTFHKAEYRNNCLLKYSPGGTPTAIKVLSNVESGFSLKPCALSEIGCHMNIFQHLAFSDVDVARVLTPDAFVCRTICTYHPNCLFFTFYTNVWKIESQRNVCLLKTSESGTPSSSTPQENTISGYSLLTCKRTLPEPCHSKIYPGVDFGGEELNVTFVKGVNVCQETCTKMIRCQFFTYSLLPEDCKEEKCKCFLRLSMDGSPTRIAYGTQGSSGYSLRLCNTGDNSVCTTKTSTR
Outline: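 Enzyme at 500 pM preincubated 30 min RT with inhibitors in 20 mM Tris pH 7.5, 1 mM EDTA, 150 mM NaCl, 0.1% PEG-400, 0.1% Triton X-100. Reaction started with 300 uM PFR-AMC, run 10 min RT; fluorescence read at 460 nm emission, 380 nm excitation. EC50 reported in ranges.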

T1 sequence (P03952 391-638 limits assumed): as the sequence (P03952 391-638 limits assumed) above
T1 sequence (P03952 20-390 partner limits assumed): as the sequence (P03952 20-390 partner limits assumed) above

| SMILES | IC90 (plasma kallikrein) | pEC50 [1] |
| --- | --- | --- |
| O=C(Nc1cc(NCc2cn3cc(C4CC4)cc(N4CC(=O)N(C5CC5)C4=O)c3n2)ncn1)[C@H]1C[C@@H]1c1cccc(Cl)c1 [Example 399, (1S,2S)-2-(3-chlorophenyl)-N-(6-(((6-cyclopropyl-8-(3-cyclopropyl-2,4-dioxoimidazolidin-1-yl)imidazo[1,2-a]pyridin-2-yl)methyl)amino)pyrimidin-4-yl)cyclopropane-1-carboxamide] | 1500 to 10000 nM | 8.00 to 9.00 |
| CN1C(=O)CN(Cc2cc(C3CC3)cn3cc(CNc4cc(NC(=O)[C@H]5C[C@@H]5c5cccc(Cl)c5)ncn4)nc23)C1=O [Example 400, (1S,2S)-2-(3-chlorophenyl)-N-(6-(((6-cyclopropyl-8-((3-methyl-2,4-dioxoimidazolidin-1-yl)methyl)imidazo[1,2-a]pyridin-2-yl)methyl)amino)pyrimidin-4-yl)cyclopropane-1-carboxamide] | 1500 to 10000 nM | 8.00 to 9.00 |
| Cc1nccc([C@H]2C[C@@H]2C(=O)Nc2cc(NCc3cn4cc(C5CC5)cc(N5CC(=O)N(C)C5=O)c4n3)ncn2)n1 (racemic) [Example 499, rac-(1S*,2S*)-N-(6-(((6-cyclopropyl-8-(3-methyl-2,4-dioxoimidazolidin-1-yl)imidazo[1,2-a]pyridin-2-yl)methyl)amino)pyrimidin-4-yl)-2-(2-methylpyrimidin-4-yl)cyclopropane-1-carboxamide] | 400 to 1500 nM | 8.00 to 9.00 |
| Cc1ncnc([C@H]2C[C@@H]2C(=O)Nc2cc(NCc3cn4cc(C5CC5)cc(N5CC(=O)N(C)C5=O)c4n3)ncn2)n1 (racemic) [Example 495, rac-(1S*,2S*)-N-(6-(((6-cyclopropyl-8-(3-methyl-2,4-dioxoimidazolidin-1-yl)imidazo[1,2-a]pyridin-2-yl)methyl)amino)pyrimidin-4-yl)-2-(4-methyl-1,3,5-triazin-2-yl)cyclopropane-1-carboxamide] | 400 to 1500 nM | 8.00 to 9.00 |
| O=C(Nc1cc(NCc2cn3cc(C4CC4)ccc3n2)ccn1)[C@H]1C[C@@H]1c1cc(Cl)cs1 (racemic) [Example I-219, rac-(1S*,2S*)-2-(4-chlorothiophen-2-yl)-N-(4-(((6-cyclopropylimidazo[1,2-a]pyridin-2-yl)methyl)amino)pyridin-2-yl)cyclopropane-1-carboxamide] | 10000 to 48000 nM | 8.00 to 9.00 |
| Cc1ccnc([C@H]2C[C@@H]2C(=O)Nc2cc(N3C[C@@H](O)C[C@@H]3c3cn4cc(C5CC5)ccc4n3)ncn2)n1 (relative stereo) [Example 476, rac-(1S*,2S*)-N-(6-((2R,4S)-2-(6-cyclopropylimidazo[1,2-a]pyridin-2-yl)-4-hydroxypyrrolidin-1-yl)pyrimidin-4-yl)-2-(4-methylpyrimidin-2-yl)cyclopropane-1-carboxamide] | 1500 to 10000 nM | > 9.00 |
| Cc1ccnc([C@H]2C[C@@H]2C(=O)Nc2ncc(F)c(NCc3cn4cc(C5CC5)cc(N5CC(=O)N(CCOCc6ccccc6)C5=O)c4n3)n2)n1 (racemic) [Example 515, rac-(1S*,2S*)-N-(4-(((8-(3-(2-(benzyloxy)ethyl)-2,4-dioxoimidazolidin-1-yl)-6-cyclopropylimidazo[1,2-a]pyridin-2-yl)methyl)amino)-5-fluoropyrimidin-2-yl)-2-(4-methylpyrimidin-2-yl)cyclopropane-1-carboxamide] | 400 to 1500 nM | > 9.00 |
| O=C(Nc1cc(NCc2cn3cc(C4CC4)cc(N4CCS(=O)(=O)CC4)c3n2)ncn1)[C@H]1C[C@@H]1c1cccc(Cl)c1 [Example I-10, (1S,2S)-2-(3-chlorophenyl)-N-(6-(((6-cyclopropyl-8-(1,1-dioxidothiomorpholino)imidazo[1,2-a]pyridin-2-yl)methyl)amino)pyrimidin-4-yl)cyclopropane-1-carboxamide] | 1500 to 10000 nM | 8.00 to 9.00 |
| Cc1ccnc([C@H]2C[C@@H]2C(=O)Nc2cc(N(C)C(C)c3cn4cc(C5CC5)cc(N5CC(=O)N(C)C5=O)c4n3)ncn2)n1 (stereo partly drawn) [Example 369, (1S,2S)-N-(6-((1-(6-cyclopropyl-8-(3-methyl-2,4-dioxoimidazolidin-1-yl)imidazo[1,2-a]pyridin-2-yl)ethyl)(methyl)amino)pyrimidin-4-yl)-2-(4-methylpyrimidin-2-yl)cyclopropane-1-carboxamide] | 1500 to 10000 nM | 8.00 to 9.00 |
| O=C(Nc1cc(N2C[C@@H](O)C[C@@H]2c2cn3cc(C4CC4)ccc3n2)ncn1)[C@H]1C[C@@H]1c1cc(Cl)ccn1 (single isomer, unassigned; isomer 2) [Example I-249, (1S*,2S*)-2-(4-chloropyridin-2-yl)-N-(6-((2R,4S)-2-(6-cyclopropylimidazo[1,2-a]pyridin-2-yl)-4-hydroxypyrrolidin-1-yl)pyrimidin-4-yl)cyclopropane-1-carboxamide, isomer 2] | < 400 nM | 8.00 to 9.00 |

More lines, now with the values ahead:

| IC90 (plasma kallikrein) | pEC50 [1] | SMILES |
| --- | --- | --- |
| 400 to 1500 nM | > 9.00 | Cc1ccnc([C@H]2C[C@@H]2C(=O)Nc2cc(N[C@H](C)c3cn4cc(C5(F)CC5)cc(N5CC(=O)N(C)C5=O)c4n3)ncn2)n1 [Example 424, (1S,2S)-N-(6-(((R)-1-(6-(1-fluorocyclopropyl)-8-(3-methyl-2,4-dioxoimidazolidin-1-yl)imidazo[1,2-a]pyridin-2-yl)ethyl)amino)pyrimidin-4-yl)-2-(4-methylpyrimidin-2-yl)cyclopropane-1-carboxamide] |
| 400 to 1500 nM | > 9.00 | COc1nc(NC(=O)[C@H]2C[C@@H]2c2nccc(C)n2)cc(OCc2cn3cc(C4CC4)cc(N4CC(=O)N(C)C4=O)c3n2)n1 [Example 556, (1S,2S)-N-(6-((6-cyclopropyl-8-(3-methyl-2,4-dioxoimidazolidin-1-yl)imidazo[1,2-a]pyridin-2-yl)methoxy)-2-methoxypyrimidin-4-yl)-2-(4-methylpyrimidin-2-yl)cyclopropane-1-carboxamide] |
| < 400 nM | > 9.00 | Cc1ccnc([C@H]2C[C@@H]2C(=O)Nc2cc(N[C@H](C)c3cn4cc(C5CC5)cc(N5CC(=O)N(C)C5=O)c4n3)nc(OCCN(C)C)n2)n1 [Example 276, (1S,2S)—N-(6-(((R)-1-(6-cyclopropyl-8-(3-methyl-2,4-dioxoimidazolidin-1-yl)imidazo[1,2-a]pyridin-2-yl)ethyl)amino)-2-(2-(dimethylamino)ethoxy)pyrimidin-4-yl)-2-(4-methylpyrimidin-2-yl)cyclopropane-1-carboxamide] |
| < 400 nM | > 9.00 | Cc1ccnc([C@H]2C[C@@H]2C(=O)Nc2cc(OCc3cn4cc(C5CC5)cc(N5CC(=O)N(C)C5=O)c4n3)c(C)nn2)n1 [Example 560, (1S,2S)-N-(5-((6-cyclopropyl-8-(3-methyl-2,4-dioxoimidazolidin-1-yl)imidazo[1,2-a]pyridin-2-yl)methoxy)-6-methylpyridazin-3-yl)-2-(4-methylpyrimidin-2-yl)cyclopropane-1-carboxamide] |
| 400 to 1500 nM | > 9.00 | Cc1ccnc([C@H]2C[C@@H]2C(=O)Nc2cc(SCc3cn4cc(C5CC5)cc(N5CC(=O)N(C)C5=O)c4n3)nc(C)n2)n1 [Example I-638, (1S,2S)—N-(6-(((6-cyclopropyl-8-(3-methyl-2,4-dioxoimidazolidin-1-yl)imidazo[1,2-a]pyridin-2-yl)methyl)thio)-2-methylpyrimidin-4-yl)-2-(4-methylpyrimidin-2-yl)cyclopropane-1-carboxamide] |
| 400 to 1500 nM | > 9.00 | Cc1ccnc([C@H]2C[C@@H]2C(=O)Nc2cc(OC(C)c3cn4cc(C5CC5)cc(N5CC(=O)N(C)C5=O)c4n3)ncn2)n1 (stereo partly drawn) [Example 549, (1S,2S)—N-(6-(1-(6-cyclopropyl-8-(3-methyl-2,4-dioxoimidazolidin-1-yl)imidazo[1,2-a]pyridin-2-yl)ethoxy)pyrimidin-4-yl)-2-(4-methylpyrimidin-2-yl)cyclopropane-1-carboxamide] |
| 400 to 1500 nM | > 9.00 | Cc1ccnc([C@@]2(F)C[C@@H]2C(=O)Nc2cc(N(C)Cc3cn4cc(C5CC5)cc(N5CC(=O)N(C)C5=O)c4n3)nc(C)n2)n1 (racemic) [Example 490, rac-(1S*,2S*)-N-(6-(((6-cyclopropyl-8-(3-methyl-2,4-dioxoimidazolidin-1-yl)imidazo[1,2-a]pyridin-2-yl)methyl)(methyl)amino)-2-methylpyrimidin-4-yl)-2-fluoro-2-(4-methylpyrimidin-2-yl)cyclopropane-1-carboxamide] |
| 400 to 1500 nM | > 9.00 | Cc1ccnc([C@H]2C[C@@H]2C(=O)Nc2nc(C)nc(OCc3cn4cc(C5CC5)cc(N5CC(=O)N(C)C5=O)c4n3)n2)n1 [Example 573, (1S,2S)—N-(4-((6-cyclopropyl-8-(3-methyl-2,4-dioxoimidazolidin-1-yl)imidazo[1,2-a]pyridin-2-yl)methoxy)-6-methyl-1,3,5-triazin-2-yl)-2-(4-methylpyrimidin-2-yl)cyclopropane-1-carboxamide] |
| 1500 to 10000 nM | > 9.00 | O=C(Nc1cc(NCc2cn3cc(C4CC4)cc(CCO)c3n2)ccn1)[C@H]1C[C@@H]1c1cccc(Cl)c1 [Example 292, (1S,2S)-2-(3-chlorophenyl)-N-(4-(((6-cyclopropyl-8-(2-hydroxyethyl)imidazo[1,2-a]pyridin-2-yl)methyl)amino)pyridin-2-yl)cyclopropane-1-carboxamide] |
| < 400 nM | > 9.00 | Cc1ccnc([C@H]2C[C@@H]2C(=O)Nc2cc(NCc3cn4cc(C5CC5)cc(N5CCOC5=O)c4n3)ncn2)n1 [Example 376, (1S,2S)-N-(6-(((6-cyclopropyl-8-(2-oxooxazolidin-3-yl)imidazo[1,2-a]pyridin-2-yl)methyl)amino)pyrimidin-4-yl)-2-(4-methylpyrimidin-2-yl)cyclopropane-1-carboxamide] |
